The values below come from patent publication US9375457B2, “Composition comprising Rhizoma coptidis, Cortex phellodendri and Fructus gardeniae and for treating neurodegenerative diseases” (Hong Kong Baptist University, priority 2013, dated 2016).

For data set [1], the system named is intracellular Aβ1-40 and Aβ1-42 in N2a-SwedAPP cells. The data set can be described thus: Sandwich ELISA of intracellular Aβ in N2a-SwedAPP cells. It is filed as cell-based, murine. Details: key to Aβs (overall influence): ↓ decreased; ↑ increased; ? unchanged.
Description: N2a-SwedAPP cells were seeded at a density of 4×10^5/mL in DMEM medium in a 6-well plate and cultured for 1 day. After transfer, cells were treated with different doses of RC, CP, FG and RS for 48 hours, then the extracellular media were collected for detection of sAPPα and sAPPβ-sw, and cells were harvested to quantify F1-APP and β-actin by Western blot analysis, as described previously by Durairajan et al. For intracellular APP, APP-CTFs and Aβ preparation, cells were washed with ice-cold PBS twice and solubilized in ice-cold RIPA buffer with protease inhibitor cocktail added. Lysates were collected and centrifuged at 16,000×g for 15 minutes at 4° C. The resulting supernatants were collected, and their protein concentrations were determined with bicinchoninic acid (BCA) protein assay reagent (Thermo Scientific, IL, USA). […] The conditioned media were standardized to total cell lysate protein.
The levels of intracellular Aβ1-40 and Aβ1-42 are quantified by using a sandwich ELISA as previously described by Durairajan et al., 2011 with minor modification. Equal amounts of cell or brain lysates are used for Aβ quantification by sandwich ELISA. The monoclonal antibody 6E10 is used as the capture antibody by adding to ELISA plates (0.2 μg diluted in 0.1 M Na2CO3 (pH 9.6) per well) and incubated overnight at 4° C. The plates are washed with PBS (0.05% Tween 20) and blocked with 4% BlockAce (Serotec, Raleigh, N.C., USA) for 2 hours at room temperature. Equilibrated protein lysates from each treatment (a 100 μL volume is adjusted in all treatment groups by using PBS) are applied in duplicate and incubated at room temperature for 2 hours with constant rotation at 30 rpm. Biotinylated monoclonal anti-Aβ40 5C3 (50 ng per well) and biotinylated monoclonal 8G7 (50 ng per well) antibodies are used for detection of Aβ1-40 and Aβ1-42, respectively, and are diluted in 1% BlockAce and incubated for 2 hours at room temperature. Plates are thoroughly washed with PBS (0.05% Tween 20), and streptavidin conjugated HRP is added for 1 hour at room temperature. Finally the plates are washed four times with PBST before adding the substrate TMB for 30 minutes. Absorbance at 450 nm is measured in duplicate wells after addition of 2 M H2SO4. All ELISA experimental data are from three different days. Synthetic Aβ40 and Aβ42 peptides are used for construction of calibration curves, and Aβ is measured in lysates.
Data set [2] deals with TgCRND8 mice. The conditions noted are these: chronic administration; cited from earlier work.
For data set [3], the system named is APP processing (F1-APP, pAPPThr668, CTFs, sAPPα, sAPPβ-sw) in N2a-SwedAPP cells. Briefly: Western blot of APP metabolic products in N2a-SwedAPP cells. The arrangement: key to Fl-APP (overall influence) / CTFs (overall influence) / sAPPα (overall influence) / sAPPβ (overall influence): ↓ decreased; ↑ increased; ? unchanged. The class given is cell-based, murine. How it is done: (§1) N2a-SwedAPP cells were obtained from Dr. Gopal Thinakaran (University of Chicago, Chicago, Ill., USA). N2a-SwedAPP cells were cultured in Dulbecco's modified Eagle's medium (DMEM) and OPTI-MEM medium in a 1:1 ratio with 5% FBS, 50 μg/mL penicillin, 50 μg/mL streptomycin and 200 μg/mL G418 as previously described in Thinakaran G, Teplow D B, Siman R, Greenberg B, Sisodia S S (1996) Metabolism of the “Swedish” amyloid precursor protein variant in neuro2a (N2a) cells. J Biol Chem 271: 9390-9397. N2a-SwedAPP cells were incubated at 37° C. in a 5% CO2/95% humidity incubator. Cells were seeded 24 hours prior to the treatments. When growth reached close to 90% of confluence, cells were transferred into DMEM with 1% FBS for loading extracts. The final concentration of DMSO in all experiments was 0.1%, and this concentration caused no cytotoxicity.
To detect the levels of APP metabolic products, the cell lysates and the conditioned media were prepared as described in Durairajan S S K, Liu L F, Lu J H, Koo I, Maruyama K, Chung S K, Huang J D, Li M. (2011) Stimulation of non-amyloidogenic processing of amyloid-β protein precursor by cryptotanshinone involves activation and translocation of ADAM10 and PKC-α. J Alzheimer's Dis 25: 245-262, with minor modification. N2a-SwedAPP cells were seeded at a density of 4×10^5/mL in DMEM medium in a 6-well plate and cultured for 1 day. After transfer, cells were treated with different doses of RC, CP, FG and RS for 48 hours, then the extracellular media were collected for detection of sAPPα and sAPPβ-sw, and cells were harvested to quantify F1-APP and β-actin by Western blot analysis, as described previously by Durairajan et al. For intracellular APP, APP-CTFs and Aβ preparation, cells were washed with ice-cold PBS twice and solubilized in ice-cold RIPA buffer with protease inhibitor cocktail added. Lysates were collected and centrifuged at 16,000×g for 15 minutes at 4° C. The resulting supernatants were collected, and their protein concentrations were determined with bicinchoninic acid (BCA) protein assay reagent (Thermo Scientific, IL, USA). For sAPPα and sAPPβ-sw detection, the conditioned media are collected and frozen in liquid nitrogen, subjected to lyophilization at −40° C. under vacuum of 105 μbar for 2 days in order to remove all liquid. The conditioned media were standardized to total cell lysate protein.
For Western blot analysis from cell culture or mouse brain, 10-30 μg total protein is separated on 10% and 15% SDS-PAGE gels and blotted onto PVDF membranes for the detection of full length APP (F1-APP), CTFs, sAPPα, sAPPβ-sw, 3-actin and phosphorylated APP (pAPPThr668). After blocking with 5% skimmed milk, the blots are incubated with primary antibodies overnight at 4° C. with shaking. Blots are washed and incubated with HRP-conjugated secondary antibodies. The goat anti-mouse IgG is used when the primary antibody is 6E10 (1:1000), sAPPβ-sw (1:100), or anti-β-actin (1:5000), and the goat anti-rabbit IgG is used when the primary antibody is anti-CT15 (1:5000) or pAPPThr668 (1:1000). After incubation with HRP-conjugated secondary antibody, immunoblots are treated with ECL and developed using X-ray films (Fujifilm). Films are scanned, and the band intensity is analyzed using Image J software (NIH Image).
Stripped CT15 and 6E10 probed membranes are reincubated with pAPPThr668 and sAPPβ-sw 6A1 antibodies, respectively.
Western blotting of N2a-SwedAPP cells is used to test differences in the processing of Swedish mutant APP by HLJDT components. Several antibodies are used in Western blot analysis: CT15 recognizes full length APP (F1-APP), 6E10 identifies only α-secretase-cleaved APP i.e sAPPα, and the sAPPβ-sw specific for β-secretase cleavage of Swedish mutant APP.

Data set [4] deals with N2a-SwedAPP cells. Briefly: MTT viability assay in N2a-SwedAPP cells. The conditions noted are these: mouse, 48 h. It is filed as cell-based, murine. As to the method:
as §1
For the viability assay, N2a-SwedAPP cells were seeded in a 96-well plate (7000 cells/well and 5000 cells/well). […] Finally, optical intensity was measured using a BioRad plate reader at 570 nm and a reference of 620 nm. […]
N2a-SwedishAPP cells are widely used as a cellular model of Alzheimer's disease, because they express a high level of APP and Aβ. The effects of HLJDT and its components on viability of N2SwedAPP cells are monitored by using the MTT assay. […]

Regarding `COc1ccc2cc3[n+](cc2c1OC)CCc1cc2c(cc1-3)OCO2` [berberine], in data set [1] (12.5 μM, 48 h), the “reduction of intracellular Aβ1-40” value worked out at 37% and the “reduction of intracellular Aβ1-42” value was determined as 25%. The “Aβs (overall influence)” value in data set [1] (N2a-SwedAPP cells) is “↓”. Further, in data set [2], the “effect on Aβ pathology, gliosis and cognitive impairments” value is on record as “significantly reduce”. In data set [3] (6.25 μM, 48 hours), the “reduction of sAPPα level” value worked out at 30% and the “reduction of sAPPβ-sw level” value is on record as 45%. In data set [3] (12.5 μM, 48 hours), the “reduction of CTFs level” value was determined as 67%, the “reduction of F1-APP level” value was determined as 54%, the “reduction of pAPPThr668 level” value is recorded as 42% and the “reduction of sAPPα level” value is 58%. Further, the “reduction of sAPPβ-sw level” value in data set [3] (12.5 μM, 48 hours) is 70%. Besides, in data set [3] (N2a-SwedAPP cells), the “CTFs (overall influence)” value was “↓”, the “Fl-APP (overall influence)” value is “↓”, the “sAPPα (overall influence)” value was “↓” and the “sAPPβ (overall influence)” value is on record as “↓”. Also, in data set [4], the “non-toxic concentration (highest concentration that shows greater than 90% cell viability)” value stood at 12.5 µM.
